The target of this experiment is T1, Glucokinase (Homo sapiens, UniProt P35557).
T1 construct: purchased ProteinOne Inc
T1 sequence (P35557 1-465): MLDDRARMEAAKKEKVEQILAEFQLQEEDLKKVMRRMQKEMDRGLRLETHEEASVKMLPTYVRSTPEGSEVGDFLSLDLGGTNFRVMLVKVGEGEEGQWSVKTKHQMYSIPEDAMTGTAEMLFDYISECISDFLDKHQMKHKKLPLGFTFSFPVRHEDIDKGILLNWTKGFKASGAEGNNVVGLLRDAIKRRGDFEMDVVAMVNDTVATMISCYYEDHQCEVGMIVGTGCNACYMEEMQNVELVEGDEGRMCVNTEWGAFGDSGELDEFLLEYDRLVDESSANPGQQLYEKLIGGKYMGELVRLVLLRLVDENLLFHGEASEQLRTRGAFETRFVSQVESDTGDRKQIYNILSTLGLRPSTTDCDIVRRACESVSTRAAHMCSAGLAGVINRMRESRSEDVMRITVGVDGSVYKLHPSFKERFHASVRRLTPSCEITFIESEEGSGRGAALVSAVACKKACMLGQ
In words: Glucokinase activation assay (NADPH absorbance at 340 nm). The experiment is classed as biochemical. Conditions: glucokinase (ProteinOne Inc.), 5 mM D(+)-glucose, 24° C., 90 minutes. The procedure, abridged: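 Glucokinase (100 ng/uL) coupled to G6PDH in 25 mM HEPES pH 7 with 5 mM D(+)-glucose, 1 mM ATP, 1 mM NADP; compounds added.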

pEC50: −log10 of the molar value. Where a name gives a salt, the structure may show the parent alone.

This is an account of results in US20120178765A1, “NOVEL GLUCOKINASE ACTIVATORS AND PROCESSES FOR THE PREPARATION THEREOF” (YUHAN CORPORATION, priority 2009, published 2012).

`CC(C)COc1cc(/C=C/c2cc(F)ccc2F)cc(C(=O)Nc2nccs2)c1` [Example 71, 3-[trans-2-(2,5-difluorophenyl)vinyl]-5-isobutoxy-N-(thiazol-2-yl)-benzamide] had a negative-log EC50 (pEC50) of 7.07. In the case of `CC(C)COc1cc(/C=C/c2c(F)cccc2F)cc(C(=O)Nc2nccs2)c1` [Example 72, 3-[trans-2-(2,6-difluorophenyl)vinyl]-5-isobutoxy-N-(thiazol-2-yl)-benzamide], the negative-log EC50 (pEC50) is 6.92. Turning to `COC[C@H](C)Oc1cc(/C=C/c2ccccc2OC)cc(C(=O)Nc2ccc(C(=O)O)cn2)c1` [Example 73, 3-[trans-2-(2-methoxyphenyl)vinyl]-5-(2-methoxy-(1S)-methyl-ethoxy)-N-(nicotinic acid-6-yl)-benzamide], the pEC50 is 7.08. To `COC[C@H](C)Oc1cc(/C=C/c2ccccc2[N+](=O)[O-])cc(C(=O)Nc2ccc(C(=O)O)cn2)c1` [Example 74, 3-[trans-2-(2-nitrophenyl)vinyl]-5-(2-methoxy-(1S)-methyl-ethoxy)-N-(nicotinic acid-6-yl)-benzamide] belongs 6.53; to `COC[C@H](C)Oc1cc(/C=C/c2cccc([N+](=O)[O-])c2)cc(C(=O)Nc2ccc(C(=O)O)cn2)c1` [Example 75, 3-[trans-2-(3-nitrophenyl)vinyl]-5-(2-methoxy-(1S)-methyl-ethoxy)-N-(nicotinic acid-6-yl)-benzamide], 6.78. Turning to `COC[C@H](C)Oc1cc(/C=C/c2ccccc2F)cc(C(=O)Nc2ccc(C(=O)O)cn2)c1` [Example 76, 3-[trans-2-(2-fluorophenyl)vinyl]-5-(2-methoxy-(1S)-methyl-ethoxy)-N-(nicotinic acid-6-yl)-benzamide], the pEC50 was 7.25. This pEC50 is 0.47 log units higher than that of the molecule before. With `COC[C@H](C)Oc1cc(/C=C/c2ccc(F)cc2)cc(C(=O)Nc2ccc(C(=O)O)cn2)c1` [Example 77, 3-[trans-2-(4-fluorophenyl)vinyl]-5-(2-methoxy-(1S)-methyl-ethoxy)-N-(nicotinic acid-6-yl)-benzamide], the negative-log EC50 (pEC50) is 6.92. `COC[C@H](C)Oc1cc(/C=C/c2cccc(F)c2F)cc(C(=O)Nc2ccc(C(=O)O)cn2)c1` [Example 78, 3-[trans-2-(2,3-difluorophenyl)vinyl]-5-(2-methoxy-(1S)-methyl-ethoxy)-N-(nicotinic acid-6-yl)-benzamide] had a pEC50 of 6.91.

Turning to `COC[C@H](C)Oc1cc(/C=C/c2ccc(F)cc2F)cc(C(=O)Nc2ccc(C(=O)O)cn2)c1` [Example 79, 3-[trans-2-(2,4-difluorophenyl)vinyl]-5-(2-methoxy-(1S)-methyl-ethoxy)-N-(nicotinic acid-6-yl)-benzamide], the pEC50 was 7.02. To `COC[C@H](C)Oc1cc(/C=C/c2cc(F)ccc2F)cc(C(=O)Nc2ccc(C(=O)O)cn2)c1` [Example 80, 3-[trans-2-(2,5-difluorophenyl)vinyl]-5-(2-methoxy-(1S)-methyl-ethoxy)-N-(nicotinic acid-6-yl)-benzamide] belongs 6.87; to `COC[C@H](C)Oc1cc(/C=C/c2c(F)cccc2F)cc(C(=O)Nc2ccc(C(=O)O)cn2)c1` [Example 81, 3-[trans-2-(2,6-difluorophenyl)vinyl]-5-(2-methoxy-(1S)-methyl-ethoxy)-N-(nicotinic acid-6-yl)-benzamide], 7.05; to `COC[C@H](C)Oc1cc(CCc2ccccc2OC)cc(C(=O)Nc2ccn(C)n2)c1` [Example 93, 3-[2-(2-methoxyphenyl)ethyl]-5-(2-methoxy-(1S)-methyl-ethoxy)-N-(1-methyl-1-pyrazol-3-yl)-benzamide], 6.87. The result for `COC[C@H](C)Oc1cc(CCc2ccccc2F)cc(C(=O)Nc2ccn(C)n2)c1` [Example 94, 3-[2-(2-fluorophenyl)ethyl]-5-(2-methoxy-(1S)-methyl-ethoxy)-N-(1-methyl-1-pyrazol-3-yl)-benzamide] reads 6.66; that for `COC[C@H](C)Oc1cc(CCc2cccc(N)c2)cc(C(=O)Nc2ccn(C)n2)c1` [Example 97, 3-[2-(3-aminophenyl)ethyl]-5-(2-methoxy-(1S)-methyl-ethoxy)-N-(1-methyl-1-pyrazol-3-yl)-benzamide], 6.38; that for `COC[C@H](C)Oc1cc(CCc2c(F)cccc2F)cc(C(=O)Nc2ccc(C(=O)O)cn2)c1` [Example 109, 3-[2-(2,6-difluorophenyl)ethyl]-5-(2-methoxy-(1S)-methyl-ethoxy)-N-(nicotinic acid-6-yl)-benzamide], 6.68.

Consider `COC[C@H](C)Oc1cc(CCc2ccccc2N)cc(C(=O)Nc2nccs2)c1` [Example 110, 3-[2-(2-aminophenyl)ethyl]-5-(2-methoxy-(1S)-methyl-ethoxy)-N-(thiazol-2-yl)-benzamide hydrochloride], for which the pEC50 is 7.17. This pEC50 lies 0.49 log units higher than the previous one. The result for `COC[C@H](C)Oc1cc(CCc2cccc(N)c2)cc(C(=O)Nc2nccs2)c1` [Example 111, 3-[2-(3-aminophenyl)ethyl]-5-(2-methoxy-(1S)-methyl-ethoxy)-N-(thiazol-2-yl)-benzamide hydrochloride] reads 7.26; that for `COC[C@H](C)Oc1cc(CCc2ccc(N)cc2)cc(C(=O)Nc2nccs2)c1` [Example 112, 3-[2-(4-aminophenyl)ethyl]-5-(2-methoxy-(1S)-methyl-ethoxy)-N-(thiazol-2-yl)-benzamide hydrochloride], 6.90; that for `COC[C@H](C)Oc1cc(CCc2ccccc2NC(=O)Cc2cccs2)cc(C(=O)Nc2nccs2)c1` [Example 114], 6.56. In turn, `CCOC(=O)Nc1ccccc1CCc1cc(O[C@@H](C)COC)cc(C(=O)Nc2nccs2)c1` [Example 117, 3-{2-[2-(carbamic acid ethyl ester)phenyl]ethyl}-5-(2-methoxy-(1S)-methyl-ethoxy)-N-(thiazol-2-yl)-benzamide] had a negative logarithm of the EC50 (pEC50) of 6.64.

Molecule `CCOC(=O)CC(=O)Nc1cccc(CCc2cc(O[C@@H](C)COC)cc(C(=O)Nc3nccs3)c2)c1` [Example 121, 3-{2-[3-(malonamic acid ethyl ester)phenyl]ethyl}-5-(2-methoxy-(1S)-methyl-ethoxy)-N-(thiazol-2-yl)-benzamide] showed a negative logarithm of the EC50 (pEC50) of 6.77. The molecule `CCOC(=O)Nc1cccc(CCc2cc(O[C@@H](C)COC)cc(C(=O)Nc3nccs3)c2)c1` [Example 122, 3-{2-[3-(carbamic acid ethyl ester)phenyl]ethyl}-5-(2-methoxy-(1S)-methyl-ethoxy)-N-(thiazol-2-yl)-benzamide] showed a pEC50 of 6.69. The pEC50 values of the last two molecules are within 0.2 log units of each other. In the case of `COC[C@H](C)Oc1cc(CCc2cccc(NC(=O)c3ccncc3)c2)cc(C(=O)Nc2nccs2)c1` [Example 128, 3-[2-(3-isonicotinamidephenyl)ethyl]-5-(2-methoxy-(1S)-methyl-ethoxy)-N-(thiazol-2-yl)-benzamide], the pEC50 is 6.70.

The molecule `CCOC(=O)CC(=O)Nc1ccc(CCc2cc(O[C@@H](C)COC)cc(C(=O)Nc3nccs3)c2)cc1` [Example 135, 3-{2-[4-(malonamic acid ethyl ester)phenyl]ethyl}-5-(2-methoxy-(1S)-methyl-ethoxy)-N-(thiazol-2-yl)-benzamide] showed a negative logarithm of the EC50 (pEC50) of 6.69.

`CCOC(=O)Nc1ccc(CCc2cc(O[C@@H](C)COC)cc(C(=O)Nc3nccs3)c2)cc1` [Example 136, 3-{2-[4-(carbamic acid ethyl ester)phenyl]ethyl}-5-(2-methoxy-(1S)-methyl-ethoxy)-N-(thiazol-2-yl)-benzamide]: the negative logarithm of the EC50 (pEC50) was 6.57. The result for `COC[C@H](C)Oc1cc(CCc2ccc(NC(=O)c3ccncc3)cc2)cc(C(=O)Nc2nccs2)c1` [Example 142, 3-[2-(4-isonicotinamidephenyl)ethyl]-5-(2-methoxy-(1S)-methyl-ethoxy)-N-(thiazol-2-yl)-benzamide] reads 6.45; that for `COC[C@H](C)Oc1cc(CCc2cccc(NC(=O)CC(=O)O)c2)cc(C(=O)Nc2nccs2)c1` [Example 147, 3-[2-(3-malonamic acid phenyl)ethyl]-5-(2-methoxy-(1S)-methyl-ethoxy)-N-(thiazol-2-yl)-benzamide], 6.65; that for `CCC(COC)Oc1cc(/C=C/c2ccc(F)cc2)cc(C(=O)Nc2nccs2)c1` (stereo not drawn) [Example 148, 3-[trans-2-(4-fluorophenyl)vinyl]-5-(1-methoxymethyl-propoxy)-N-(thiazol-2-yl)-benzamide], 6.38.

The term pEC50 denotes the EC50 on a negative log10 scale, so that one unit is a factor of ten. Low values mean a high EC50, high ones a low EC50.
